The values below come from patent US20160030438A1, “ANTI-TUMORAL COMPOSITION COMPRISING A PI3KBETA INHIBITOR AND A RAF INHIBITOR, TO OVERCOME CANCER CELLS RESISTANCE” (SANOFI, priority 2013, published 2016).

The structures appear in SMILES notation. “And” between values parts separate entries of the source, which are not always exact repeats. Identical values can stand only once. Bounds are passed on as bounds.

The subject of data set [1] is human melanoma cell line WM-266-4. Kind of data set: In vitro anti-proliferative activity (CelltiterGlo, ray design) in WM-266-4, example 1. Type of data set: cell-based. The protocol:
Prior to in vitro combination studies, the activity of individual agents was investigated using WM-266-4 cell line. The purpose of testing individual agents was to determine the independence of their action and to determine the dilution design of the Fixed Ratio Drug Combination assay.
(§1) The human melanoma WM-266-4 cell line was purchased at ATCC (Ref number CRL-1676 Batch 3272826). The WM-266-4 cells were cultured in RPMI1640 medium supplemented with 10% FBS and 2 mM L-Glutamine.
They were diluted serially, in DMSO following a 3 or 3.3-fold dilution step in order to obtain 10 mM to 0.03 μM solutions: then each solution was diluted 50-fold in culture medium containing 10% serum before being added onto cells with a 20-fold dilution factor. The final concentrations tested were defined by a Ray design which allows characterizing the interaction of the two compounds for several fixed proportions in the mixture. The ray design used for this experiment includes one ray for each single agent and 4 combination rays. All rays have 10 concentrations (see Table 1). The DMSO concentration was 0.1% in controls and in all treated wells.
WM-266-4 cells were plated at 2500 cells/well in 96-well plates in appropriate culture medium and incubated for 6 hours at 37° C., 5% CO2. […] Cell growth was evaluated by measuring intracellular ATP using CelltiterGlo® reagent (Promega) according to the manufacturer's protocol. Briefly, CellTiterGlo® was added to each plate, incubated for 1 hour then luminescent signal was read on the MicroBeta Luminescent plate reader. Three experiments have been performed on the cell line. For each experiment, two 96-well plates are used allowing working with duplicates.
Inhibition of cell growth was estimated after treatment with one compound or the combination of compounds for four days and comparing the signal to cells treated with vehicle (DMSO).
Growth inhibition percentage (GI %) was calculated according to the following equation:
GI %=100*(1−((X−BG)/(TC−BG)) […]
(In general: Cellular ATP, detected with luciferase, serves as a proxy for viable cell number.)

The test system is the same in data set [2]. Kind of data set: In vitro pro-apoptotic activity (PARP cleavage western blot) in WM-266-4, example 2. Type of data set: cell-based. The note with it: for PARP cleavage signal (AU-BG): single agent 10 000 nM, 24 hours, WM-266-4, example 2. Here is the method: The characterization of the interaction between compound (I) and compound (II) was studied using western blotting method measuring the expression of cleaved PARP which allows to investigate apoptosis by detecting the cleavage of the PARP protein.
as §1
They were diluted following a 10 fold step dilution in DMSO in order to obtain a 1 mM solution. Then each solution at 10 mM and 1 mM was diluted 50-fold in culture medium containing 10% serum before being added onto cells with a 20-fold dilution factor to reach final concentrations of 10,000 nM and 1,000 nM. The final DMSO concentration was 0.1% in controls and in all treated wells.
WM-266-4 cells were seeded into 6-well microplates at 1 000 000 cells per well, in complete culture medium and incubated at 37° C., 5% CO2, overnight.
At the end of cell treatment period, adherent cells as well as cells in the cell culture supernatant were lysed for the preparation of the proteins. Cells were lysed in a lysis buffer containing Hepes 50 mM, NaCl 150 mM, Glycerol 10%, Triton 1%, pH=7.5, adding extemporaneously a cocktail of protease and phosphatase inhibitors diluted 100 fold. Protein concentrations in each sample were determined using microBCA technique according to manufacturer's instructions. Western blotting was performed loading 20 μg of proteins in each gel well, and according to the operating procedure. […] After western blotting revelation according to the operating procedure instructions, luminescence was read using FujiFilm (Ray Test) apparatus.
This instrument measures the total signal of luminescence obtained on Fujifilm machine (AU) for each selected band. Then, it subtracts the background value (BG) proportional to the size of the selected band or Area. The background is calculated from a band taken on the specific background of the western blot, to obtain the specific signal or (AU−BG) for each band. The calculation of the fold induction is performed for each treatment with compound or combination of compounds using the following formula:
Fold Induction=((AU−BG)t/(AU−BG)st)*100
For orientation: A western blot detects proteins with antibodies after separation by electrophoresis.

Data set [3] relates to BRAF mutated melanoma. The note with it: phase I trial; cited from earlier work.
For data set [4], the target named is PI3Kβ isoform (Homo sapiens, UniProt P42338). Kind of data set: PI3Kβ biochemical assay. The note with it: biochemical assays.
The target in data set [5] is T1, PI3Kdelta (Homo sapiens, UniProt O00329). The experiment in a line: PI3Kdelta biochemical assay. The note with it: biochemical assays.
Data set [6] has as its target PI3Kgamma (Homo sapiens, UniProt P48736). Kind of data set: PI3Kgamma biochemical assay. The note with it: biochemical assays.
The target of data set [7] is mTOR (Homo sapiens, UniProt P42345). Kind of data set: mTOR inhibition. It counts as biochemical. The note with it: up to 10 μM.
In data set [8] the target is VPS34 lipid kinase (Homo sapiens, UniProt Q8NEB9). The experiment in a line: Profiling against panel of more than 400 lipid and protein kinases (VPS34). The note with it: biochemical.
For data set [9], the target named is VPS34 (Homo sapiens, UniProt Q8NEB9). The experiment in a line: Functional VPS34 cellular assay. Type of data set: cell-based.
Data set [10] deals with PI3Kβ (Homo sapiens, UniProt P42338). The experiment in a line: Inhibition of AKT phosphorylation (pAkt-S473) in MEF-3T3-myr p110β mouse fibroblasts. Type of data set: cell-based. The note with it: pAkt-S473, MEF-3T3-myr p110β; read-out: IC50 on PI3Kβ in the PI3Kβ-dependent cell line.
The target in data set [11] is T1, PI3Kdelta. Kind of data set: Inhibition of AKT phosphorylation (pAkt-S473) in MEF-3T3-myr p110δ mouse fibroblasts. Type of data set: cell-based. The note with it: pAkt-S473, MEF-3T3-myr p110δ; read-out: IC50 on PI3Kdelta in cells.
The target in data set [12] is T2, PI3Kgamma (Mus musculus, UniProt Q9JHG7).
T2 construct: RAW 264.7 mouse macrophages (after stimulation of AKT phosphorylation by C5a) for PI3Kgamma; endogenous in cells; host or cells: RAW 264.7 mouse macrophages
The experiment in a line: Inhibition of AKT phosphorylation (pAkt-S473) in RAW 264.7 mouse macrophages after C5a stimulation. Type of data set: cell-based. The note with it: pAkt-S473, RAW 264.7, C5a; read-out: IC50 on PI3Kgamma in cells.

Sequence of PI3Kgamma (Homo sapiens, UniProt P48736) (P48736 whole entry, species assumed): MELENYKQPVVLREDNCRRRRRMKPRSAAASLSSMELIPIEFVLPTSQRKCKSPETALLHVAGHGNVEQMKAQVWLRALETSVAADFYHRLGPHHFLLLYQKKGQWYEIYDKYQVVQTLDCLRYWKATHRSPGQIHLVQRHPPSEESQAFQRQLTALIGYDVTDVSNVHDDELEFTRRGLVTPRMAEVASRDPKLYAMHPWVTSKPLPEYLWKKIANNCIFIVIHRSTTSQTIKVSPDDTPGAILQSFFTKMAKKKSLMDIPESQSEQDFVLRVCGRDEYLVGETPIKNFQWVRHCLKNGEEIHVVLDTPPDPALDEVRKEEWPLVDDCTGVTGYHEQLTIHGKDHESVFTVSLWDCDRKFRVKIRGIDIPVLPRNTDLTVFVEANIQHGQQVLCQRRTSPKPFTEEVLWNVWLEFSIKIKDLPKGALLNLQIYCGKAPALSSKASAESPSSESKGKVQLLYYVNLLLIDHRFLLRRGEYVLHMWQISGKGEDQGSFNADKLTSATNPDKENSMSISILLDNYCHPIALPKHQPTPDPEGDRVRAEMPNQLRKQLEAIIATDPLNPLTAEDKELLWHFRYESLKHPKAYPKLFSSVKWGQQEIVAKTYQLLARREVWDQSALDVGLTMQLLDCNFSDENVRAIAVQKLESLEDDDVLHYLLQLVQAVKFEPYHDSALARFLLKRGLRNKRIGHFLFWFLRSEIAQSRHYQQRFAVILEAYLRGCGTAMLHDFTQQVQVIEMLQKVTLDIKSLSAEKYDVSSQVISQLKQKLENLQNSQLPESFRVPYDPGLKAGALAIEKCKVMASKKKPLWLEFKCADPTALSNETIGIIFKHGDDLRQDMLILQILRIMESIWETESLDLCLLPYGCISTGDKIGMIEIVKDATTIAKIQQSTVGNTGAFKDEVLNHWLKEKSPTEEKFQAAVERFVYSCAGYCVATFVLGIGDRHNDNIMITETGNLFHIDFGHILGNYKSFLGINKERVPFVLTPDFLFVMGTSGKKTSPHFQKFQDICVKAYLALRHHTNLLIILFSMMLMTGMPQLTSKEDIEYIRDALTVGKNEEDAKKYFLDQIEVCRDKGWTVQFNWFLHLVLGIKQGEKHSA
T2 sequence (Q9JHG7 whole entry): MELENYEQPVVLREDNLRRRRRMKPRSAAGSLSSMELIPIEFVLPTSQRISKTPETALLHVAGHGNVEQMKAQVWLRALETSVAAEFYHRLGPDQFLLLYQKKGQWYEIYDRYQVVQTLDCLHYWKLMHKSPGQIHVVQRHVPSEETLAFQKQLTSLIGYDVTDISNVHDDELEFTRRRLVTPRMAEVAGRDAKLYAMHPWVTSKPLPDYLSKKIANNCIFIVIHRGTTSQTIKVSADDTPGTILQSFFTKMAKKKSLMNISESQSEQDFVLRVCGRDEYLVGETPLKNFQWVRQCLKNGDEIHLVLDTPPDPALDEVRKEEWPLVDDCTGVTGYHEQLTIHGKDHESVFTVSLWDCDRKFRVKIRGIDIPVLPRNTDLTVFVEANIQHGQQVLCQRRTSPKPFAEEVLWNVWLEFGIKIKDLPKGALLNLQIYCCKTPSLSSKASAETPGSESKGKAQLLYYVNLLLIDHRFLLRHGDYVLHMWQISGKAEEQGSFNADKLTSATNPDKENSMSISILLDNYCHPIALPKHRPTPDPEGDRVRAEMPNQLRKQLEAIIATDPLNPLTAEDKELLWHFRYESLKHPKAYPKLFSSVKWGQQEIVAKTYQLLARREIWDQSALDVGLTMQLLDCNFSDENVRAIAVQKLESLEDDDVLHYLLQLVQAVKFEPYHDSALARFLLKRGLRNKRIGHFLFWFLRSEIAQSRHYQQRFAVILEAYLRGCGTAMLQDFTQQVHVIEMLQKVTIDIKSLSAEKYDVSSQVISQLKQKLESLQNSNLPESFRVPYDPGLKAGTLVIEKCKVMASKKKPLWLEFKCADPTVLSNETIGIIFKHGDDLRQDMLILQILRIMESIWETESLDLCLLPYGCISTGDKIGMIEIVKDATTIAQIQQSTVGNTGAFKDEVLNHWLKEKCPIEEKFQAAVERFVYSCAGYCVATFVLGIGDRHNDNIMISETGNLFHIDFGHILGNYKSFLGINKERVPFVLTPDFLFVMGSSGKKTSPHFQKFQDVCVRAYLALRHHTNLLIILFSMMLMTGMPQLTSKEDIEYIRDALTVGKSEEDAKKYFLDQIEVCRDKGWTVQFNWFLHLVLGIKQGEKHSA
Sequence of PI3Kβ isoform (P42338 whole entry, canonical isoform): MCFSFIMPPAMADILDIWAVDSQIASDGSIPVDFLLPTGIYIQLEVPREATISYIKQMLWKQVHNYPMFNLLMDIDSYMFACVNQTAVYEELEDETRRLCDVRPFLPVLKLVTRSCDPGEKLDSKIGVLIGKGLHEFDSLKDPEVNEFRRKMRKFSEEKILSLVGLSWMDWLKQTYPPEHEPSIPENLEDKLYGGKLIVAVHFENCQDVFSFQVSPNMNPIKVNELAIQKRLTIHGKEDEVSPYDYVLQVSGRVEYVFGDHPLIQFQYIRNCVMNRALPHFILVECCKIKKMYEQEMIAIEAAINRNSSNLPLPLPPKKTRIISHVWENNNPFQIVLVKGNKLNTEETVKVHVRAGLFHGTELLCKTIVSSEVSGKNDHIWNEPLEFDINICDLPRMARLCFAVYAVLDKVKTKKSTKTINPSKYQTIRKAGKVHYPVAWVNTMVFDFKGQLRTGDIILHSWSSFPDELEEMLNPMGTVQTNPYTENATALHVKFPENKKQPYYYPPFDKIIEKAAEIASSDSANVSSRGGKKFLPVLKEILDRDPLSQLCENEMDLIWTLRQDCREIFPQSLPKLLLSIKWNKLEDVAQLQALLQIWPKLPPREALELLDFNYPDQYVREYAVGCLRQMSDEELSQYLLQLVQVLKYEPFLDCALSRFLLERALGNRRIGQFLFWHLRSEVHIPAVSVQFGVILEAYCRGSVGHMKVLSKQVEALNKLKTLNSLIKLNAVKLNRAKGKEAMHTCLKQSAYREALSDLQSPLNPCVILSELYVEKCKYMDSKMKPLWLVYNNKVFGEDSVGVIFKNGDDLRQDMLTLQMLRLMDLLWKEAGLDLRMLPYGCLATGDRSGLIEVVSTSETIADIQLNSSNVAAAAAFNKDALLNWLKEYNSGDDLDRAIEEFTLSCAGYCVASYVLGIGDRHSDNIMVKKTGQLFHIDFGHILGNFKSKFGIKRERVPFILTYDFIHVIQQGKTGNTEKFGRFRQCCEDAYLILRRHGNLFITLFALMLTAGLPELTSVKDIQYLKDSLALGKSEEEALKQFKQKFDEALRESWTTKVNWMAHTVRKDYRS
Sequence of PI3Kβ isoform (P27986 whole entry partner, canonical isoform): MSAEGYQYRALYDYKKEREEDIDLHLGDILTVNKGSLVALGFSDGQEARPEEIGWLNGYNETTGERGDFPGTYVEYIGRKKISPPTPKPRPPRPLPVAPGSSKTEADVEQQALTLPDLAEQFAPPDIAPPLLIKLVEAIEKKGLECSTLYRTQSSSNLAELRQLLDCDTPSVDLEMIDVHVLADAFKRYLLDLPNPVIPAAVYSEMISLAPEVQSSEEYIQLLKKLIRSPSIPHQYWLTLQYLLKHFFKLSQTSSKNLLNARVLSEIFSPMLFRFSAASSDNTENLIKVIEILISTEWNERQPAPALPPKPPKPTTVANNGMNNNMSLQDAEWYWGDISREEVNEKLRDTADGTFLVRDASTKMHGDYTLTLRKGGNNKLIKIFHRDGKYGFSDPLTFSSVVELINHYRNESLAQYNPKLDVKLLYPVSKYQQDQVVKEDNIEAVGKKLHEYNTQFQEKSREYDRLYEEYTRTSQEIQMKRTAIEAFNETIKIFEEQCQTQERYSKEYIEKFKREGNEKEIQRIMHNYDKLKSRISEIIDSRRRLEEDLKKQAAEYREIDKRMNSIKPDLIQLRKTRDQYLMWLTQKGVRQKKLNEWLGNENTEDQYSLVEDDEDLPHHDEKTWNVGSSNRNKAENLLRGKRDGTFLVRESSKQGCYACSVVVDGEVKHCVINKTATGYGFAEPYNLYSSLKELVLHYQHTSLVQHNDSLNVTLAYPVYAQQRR
Sequence of PI3Kβ (P42338 whole entry, species assumed): as the sequence (P42338 whole entry, canonical isoform) above
Sequence of PI3Kβ (P26450 whole entry partner, species assumed): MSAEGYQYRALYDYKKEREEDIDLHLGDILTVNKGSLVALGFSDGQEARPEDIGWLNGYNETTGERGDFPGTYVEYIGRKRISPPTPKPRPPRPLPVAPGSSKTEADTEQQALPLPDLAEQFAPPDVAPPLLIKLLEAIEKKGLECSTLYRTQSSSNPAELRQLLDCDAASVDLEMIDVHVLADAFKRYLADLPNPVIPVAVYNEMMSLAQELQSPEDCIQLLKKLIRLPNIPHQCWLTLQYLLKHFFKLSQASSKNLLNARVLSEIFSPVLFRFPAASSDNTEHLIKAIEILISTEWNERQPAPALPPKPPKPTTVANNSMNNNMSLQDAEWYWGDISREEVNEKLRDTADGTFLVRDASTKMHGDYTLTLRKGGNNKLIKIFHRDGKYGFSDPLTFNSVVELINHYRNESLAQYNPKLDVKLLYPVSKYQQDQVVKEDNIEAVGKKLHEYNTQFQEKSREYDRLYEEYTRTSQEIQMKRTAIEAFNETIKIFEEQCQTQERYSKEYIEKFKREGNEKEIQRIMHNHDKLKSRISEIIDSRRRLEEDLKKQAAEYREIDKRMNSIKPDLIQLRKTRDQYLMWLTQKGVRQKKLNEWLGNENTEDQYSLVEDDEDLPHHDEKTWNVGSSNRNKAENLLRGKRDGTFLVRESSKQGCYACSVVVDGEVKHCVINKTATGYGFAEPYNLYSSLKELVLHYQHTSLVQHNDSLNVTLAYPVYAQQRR

On to `CCCS(=O)(=O)Nc1ccc(F)c(C(=O)c2c[nH]c3ncc(-c4ccc(Cl)cc4)cc23)c1F` [Compound (II), 1-Propanesulfonamide,N-[3-[[5-(4-chlorophenyl)-1H-pyrrolo[2,3-b]pyridin-3-yl]carbonyl]-2,4-difluorophenyl]], for which, in data set [1] (Homo sapiens, WM 266-4, approximately, read-out: IC50 with WM-266-4 sensitive cancer cells), the IC50 was around 84 nM. In data set [1] (single agent, WM-266-4, 96 hours, example 1), the “Absolute IC40s” value is 35 nM and 34.9 nM. Moreover, in data set [1] (single agent, approximately), the “IC40, antiproliferative effect, WM-266-4” value is given as around 60 nM. Moreover, in data set [2] (human, WM-266-4 melanoma cells (BRAF mutant, PTEN-deficient), 24 h, 10000 nM), the “Fold induction of PARP cleavage” value amounted to 1.38 fold. Also, in data set [2], the “PARP cleavage signal (AU-BG)” value turned out to be 982219 AU-BG. Further, the “patients with at least 30% tumor shrinkage by RECIST” value in [3] is on record as 81%.

On to `C[C@H]1Cc2ccccc2N1C(=O)Cc1nc(N2CCOCC2)cc(=O)[nH]1` [Compound (I), 2-{2-[(2S)-2-methyl-2,3-dihydro-1H-indol-1-yl]-2-oxoethyl}-6-(morpholin-4-yl)pyrimidin-4(3H)-one], for which the IC50 was 65 nM in [4]; 465 nM in data set [5]; above 10000 nM in data set [6]; 180 nM in data set [8]; above 10000 nM in [9]; 32 nM in data set [10]. Further, the IC50 in [11] is 823 nM; in data set [12], above 3000 nM. In data set [7], the mTOR inhibition result is “not inhibit mTOR”. Further, the “PARP cleavage signal (AU-BG)” value in [2] came out at 509366 AU-BG.
